# From patent publication US8778915B2, “Method for the treatment of central nervous system cancers and compositions related thereto” (Emory University, priority 2010, dated 2014)
# Key:
# PC-12 cells = test: Survival of PC-12 cells treated with cyclodextrin; type: cell-based; settings: 48 h, very high concentration (320 uM)
# Description: PC-12 cells were treated with different concentrations of cyclodextrin for 48 h. The values are expressed as mean±SD of duplicate samples. This experiment was done to answer the question if any compound can kill tumor cells at high doses. B-Cyclodextrin is an inert compound and used as a vehicle for Progesterone.
# [1] = system: human neuroblastoma (SK-N-AS) cells; test: MTT cell viability, single 48 h exposure, neuroblastoma cells; type: cell-based; settings: single exposure 48 hours, at 5 μM and 10 μM, P<0.05 compared to control
# Description: Data were evaluated by analysis of variance (ANOVA) followed by Dunnett test for individual comparisons. […] Values were expressed as means±SD of three experiments.
# The human neuroblastoma cells (SK-N-AS) were cultured in a DMEM medium and E18 rat primary cortical neurons were cultured for 8-10 days in Neurobasal medium. […] An MTT reduction assay was used to estimate cell viability.
# [2] = system: human neuroblastoma (SK-N-AS) cells; test: Cell viability, repeated daily exposure for 3 and 6 days, neuroblastoma cells; type: cell-based; settings: 0.1-160 μM
# Description: Analysis of variance (ANOVA) followed by a Dunnett test was used to compare treatment groups to controls. […] Values were expressed as means±SD of three experiments.
# FIG. 3 show the effects of PROG exposure for 3 and 6 days on the viability of Neuroblastoma cells (SK-N-AS). Cells were exposed to different concentrations of PROG (0.1, 1, 5, 10, 20, 80, 160 μM) daily for 3 days and 6 days. The statistical analysis of data was performed with analysis of variance (ANOVA) followed by Dunnett test to compare several treatment group to a single control group. The significance of results was set at P<0.05. Values are expressed as Means±SD of three experiments. Significant difference *P<0.05 when compared to control.
# [3] = system: human glioblastoma cell line U87MG; test: Cell viability, repeated exposure, glioblastoma-1 cells; type: cell-based
# Description: (§1) Cells were exposed to different concentrations of PROG daily for 3 days and 6 days by replacing culture medium containing PROG. The stock solution of PROG was prepared in DMSO (Final concentration: <5 μl/ml medium). Data were analyzed using analysis of variance (ANOVA) followed by Dunnett's test. Values are expressed as Means±SD of two independent experiments with duplicate samples. Significant difference *P<0.05 when compared to control values.
# [4] = system: human glioblastoma cell line U87dEGFR; test: Cell viability, repeated exposure, glioblastoma-2 cells; type: cell-based
# Description: as §1
# [5] = system: U87MG glioblastoma cell line; test: Morphology of glioblastoma cells, phase contrast microscope; type: cell-based, human; settings: high concentrations (40, 80 and 160 μM)
# [6] = system: human neuroblastoma xenograft; test: Mouse xenograft model of human neuroblastoma; type: in vivo, female athymic nude mice; settings: after 8 days of treatment
# Text: The vehicle group received saline only. Data were normalized to the baseline values (day 1) and expressed as percent change in daily tumor growth. […] The vehicle group received saline only. Values are expressed as mean tumor size for the different animals in each group. The significance of results was set at P<0.05 two-tailed. Values are expressed as % change in Means±SEM of tumor volume in different groups. […] Tumors were allowed to grow to ˜200 to 250 mm^3 and mice were divided into groups. […] This regimen was planned to be continued for up to two weeks to examine maximum tumor burden. All treated animals are being compared to appropriate controls for analysis of rate of daily tumor growth, tumor volume and regression. Toxicity is being assessed daily by survival, activity and body weight.
# neuroblastoma cells = settings: 10 μM; cited from earlier work
# breast cancer = settings: single injection of depot progesterone prior to breast cancer therapy, over 1000 women, 65 months after diagnosis and treatment; cited from earlier work
# glioblastoma = settings: first study; cited from earlier work
# [7] = repeated exposure 3 and 6 days, high doses
compound,measurement,setting,value
OC[C@H]1O[C@@H]2O[C@H]3[C@H](O)[C@@H](O)[C@@H](O[C@H]4[C@H](O)[C@@H](O)[C@@H](O[C@H]5[C@H](O)[C@@H](O)[C@@H](O[C@H]6[C@H](O)[C@@H](O)[C@@H](O[C@H]7[C@H](O)[C@@H](O)[C@@H](O[C@H]8[C@H](O)[C@@H](O)[C@@H](O[C@H]1[C@H](O)[C@H]2O)O[C@@H]8CO)O[C@@H]7CO)O[C@@H]6CO)O[C@@H]5CO)O[C@@H]4CO)O[C@@H]3CO [B-Cyclodextrin],cell death,PC-12 cells,could not induce cell death
"CC(=O)[C@H]1CC[C@H]2[C@@H]3CCC4=CC(=O)CC[C@]4(C)[C@H]3CC[C@]12C [progesterone, pregn-4-ene-3,20-dione]",cell death (MTT cell viability),[1],significant cell death
same,cell death,[2]; daily exposure for 3 days,significant (P<0.05) cell death in a concentration dependant manner
same,cell death,"[2]; daily exposure for 6 days, concentration dependant",cell death (P<0.05) was observed
same,effectiveness of six days versus 3 days of treatment,[3]; repeated exposure,more effective than 3 days
same,cell viability,[3]; [7],killed both glioblastoma cell lines in a dose dependant manner
same,effectiveness of six days versus 3 days of treatment,[4]; repeated exposure,more effective than 3 days
same,cell viability,[4]; [7],killed both glioblastoma cell lines in a dose dependant manner
same,changes in cell morphology,[5],"lose their original shape, become detached from the surface, and eventually die"
same,reduction of rate of tumor growth compared to saline vehicle,[6]; 50 mg/kg peritumoral injection once daily,~50%
same,reduction of rate of tumor growth compared to saline vehicle,[6]; 100 mg/kg peritumoral injection once daily,~50%
same,cell viability,neuroblastoma cells,significant decrease in cell viability
same,reduction of mortality,breast cancer,more than 35%
"Avastin: Avastin (bevacizumab), FDA approved to treat glioblastoma at progression after standard therapy",patients who survived for at least 6 months without disease progressing,glioblastoma,43%
same,patients who survived for at least one year,glioblastoma,38%
same,patients with tumor shrinkage,glioblastoma,28%
